Measured values taken from patent US20100104521A1, “COSMETIC AND/OR PHARMACEUTICAL COMPOSITION COMPRISING AS AN ACTIVE PRINCIPLE AT LEAST ONE PEPTIDE AND USE OF THIS PEPTIDE” (SOCIETE D'EXTRACTION DES PRINCIPES ACTIFS SA (VINCIENCE), priority 2006, published 2010).

Test system: melanocytes of human skin biopsies
Experiment: Ex vivo study of the effect of the peptide on the synthesis of melanin (human skin biopsies, Fontana-Masson staining)
Format: cell-based
Conditions: human skin biopsies 6 mm in ex vivo culture, two applications daily, peptide at 1% starting with a 50-ppm solution, 48 hours
Experimental: The aim of this ex vivo study is to highlight the increase in melanization produced by the peptides according to the invention.
Protocol: Biopsies of human skin 6 mm in diameter are held in an ex vivo culture in the presence of a specific medium (1 g/L DMEM, Ham's F-12, SVF, and antibiotics) on inserts deposited on 6-well plates. […] The duration of the treatment is 48 hours. The biopsies are subsequently fixed in 9% formaldehyde and NaCl (150 mM) for 10 hours and then enclosed in paraffin. Thin-sections of the skin 3 μm thick are then made, and the melanin is specifically stained by the Fontana-Masson technique. […] Conclusions: The peptide of sequence of SEQ ID No. 4 induces a strong increase in the synthesis of melanin by the melanocytes and stimulates the entire process of melanin distribution in the epidermis.

In the case of Trp-Lys-Leu-Asp (WKLD) [SEQ ID No. 4], the “location / distribution of melanin in the epidermis” value (Fontana-Masson staining) is reported as “located in the basal layer but is also transported into the supra-basal layers” and the “intensity of melanin coloration of skin thin-sections (Fontana-Masson technique)” value (versus biopsies without application) is reported as “coloration of clearly increased intensity”.
